Molecules are shown by their SMILES.

Series [1] concerns Neh2-luc reporter (SH-SY5Y cell line). The series can be described thus: Neh2-luc reporter assay. The note with it: Homo sapiens, SH-SY5Y. It is filed as cell-based. In general terms: In a reporter assay the amount or activity of a reporter protein is the signal.
For series [2], the system named is HIF1 ODD-luc reporter (SH-SY5Y cell line). Description: HIF1 ODD-luc reporter assay. The class given is cell-based. To be noted: Homo sapiens, SH-SY5Y.
For the next series, the system named is HO-1 mRNA in brain. Description: Brain HO-1 mRNA levels after NDGA. It is filed as in vivo, mouse. The note with it: 6 hours after last dose, data not shown. The protocol:
We used an acute paradigm of MPTP administration (10 mg MPTP/kg X 3, every two hours), known to cause about a 50% loss of striatal dopamine and its metabolites DOPAC and HVA and significant loss of tyrosine hydroxylase (TH) immunopositive neurons in the substantia nigra pars compacta (SNpc) on the 7th day. […] The doses that were used to determine the efficacy of NDGA against MPTP were determined by evaluation of brain HO-1 levels. Both 50 and 100 mg/kg administered twice a day induced a dose dependent increase in HO-1 mRNA levels at 6 hours after last dose of NDGA.

The nature of series [3]: Iron binding constant, calcein displacement assay. The class given is physicochemical. The note with it: calcein displacement. The source says: Calcein displacement assay in the presence of varied concentrations of flavonoids and catechols has been used. Calcein release from its complex with iron was monitored by fluorescence as described in [26].

For `CC(Cc1ccc(O)c(O)c1)C(C)Cc1ccc(O)c(O)c1` (stereo not shown) [compound 28, 4,4'-(2,3-dimethylbutane-1,4-diyl)dibenzene-1,2-diol], the figures for the EC50 in series [1] (Neh2-luc) and in series [2] were 2000 nM and about 2000 nM, respectively. Also, the fold induction at 10 µM in series [1] (at 10 µM, 3 h incubation, read-out: Neh2-luc fold activation) stood at 15 ± 1.8; in series [2] (3 h, at 10 µM, 3 h incubation, read-out: ODD-luc fold activation), 2. The “increase in HO-1 mRNA levels” value with HO-1 mRNA in brain (50 mg/kg twice a day) is 1.2 fold; with HO-1 mRNA in brain (100 mg/kg twice a day), 6 fold. The “Iron complex Diss. Const” value in series [3] is 2.5 ± 0.3 µM.
